In PubChem BioAssay (NCI):
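In this assay, cells in 96-well plates receive the compound at five concentrations for 48 hours. Endpoints are linearly interpolated between the surrounding concentrations. Abbreviation: GI50, concentration required for 50% inhibition of growth. TGI denotes the concentration required for complete inhibition of growth.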

Key:
Assay in all cases: inhibition of tumour cell growth, NCI panel, 48 h
[1] = system: EKVX NSCLC
[2] = system: SK-MEL-2 melanoma
[3] = system: MDA-N
[4] = system: OVCAR-5 ovarian
[5] = system: SN12C renal
[6] = system: HCC-2998 colon
[7] = system: SNB-19 CNS
[8] = system: OVCAR-3 ovarian
[9] = system: NCI-H460 lung
[10] = system: PC-3 prostate
[11] = system: MCF7 breast
[12] = system: A498 renal
[13] = system: IGROV1 ovarian
[14] = system: HCT-15 colon
[15] = system: MDA-MB-435
[16] = system: UACC-257 melanoma
[17] = system: LOX IMVI melanoma
[18] = system: DU-145 prostate
[19] = system: RXF 393 renal
[20] = system: OVCAR-8 ovarian
[21] = system: SK-MEL-5 melanoma
[22] = system: RPMI-8226 leukemia
[23] = system: M14 melanoma
[24] = system: UACC-62 melanoma
[25] = system: CAKI-1 renal
[26] = system: SK-OV-3 ovarian
[27] = system: UO-31 renal
[28] = system: HCT-116 colon
[29] = system: 786-0 renal
[30] = system: OVCAR-4 ovarian
[31] = system: HL-60(TB) leukemia
[32] = system: MALME-3M melanoma
[33] = system: T-47D breast
[34] = system: ACHN renal
[35] = system: HT29 colon
[36] = system: SR leukemia
[37] = system: HS 578T breast
[38] = system: KM12 colon
[39] = system: SW-620 colon
[40] = system: SK-MEL-28 melanoma
[41] = system: A549 NSCLC
[42] = system: U251 CNS
[43] = system: CCRF-CEM leukemia
[44] = system: HOP-92 NSCLC
[45] = system: NCI-H522 lung
[46] = system: TK-10 renal
[47] = system: K-562 leukemia
[48] = system: MOLT-4 leukemia
[49] = system: HOP-62 NSCLC
[50] = system: NCI-H23 lung
[51] = system: SNB-75 CNS
[52] = system: COLO 205 colon
[53] = system: SF-295 CNS
[54] = system: NCI/ADR-RES ovarian
[55] = system: SF-539 CNS
[56] = system: SF-268 CNS
[57] = system: MDA-MB-231 breast
[58] = system: NCI-H226 lung
[59] = system: BT-549 breast

CN(CCc1ccccn1)C(=S)N/N=C(\c1ccccc1)c1ccccn1
TGI [1]: 2 µM | TGI [2]: 4.35 µM | TGI [3]: 8.51 µM | TGI [4]: 7.88 µM | TGI [5]: 15 µM | TGI [6]: 5.39 µM | TGI [7]: 9.07 µM | TGI [8]: 10.4 µM | TGI [9]: 7.07 µM | TGI [10]: 6.67 µM | TGI [11]: > 100 µM | TGI [12]: 0.942 µM | TGI [13]: 1.57 µM | TGI [14]: 12.8 µM | TGI [15]: 8.09 µM | TGI [16]: 1.94 µM | TGI [17]: 2.04 µM | TGI [18]: 5.66 µM | TGI [19]: 2.83 µM | TGI [20]: 1.56 µM | TGI [21]: 6.65 µM | TGI [22]: 2.14 µM | TGI [23]: 8.43 µM | TGI [24]: 2.04 µM | TGI [25]: 5.3 µM | TGI [26]: 2.19 µM | TGI [27]: 1.83 µM | TGI [28]: 2.02 µM | TGI [29]: 2.68 µM | TGI [30]: 2.23 µM | TGI [31]: > 100 µM | TGI [32]: 3.14 µM | TGI [33]: 4.82 µM | TGI [34]: 1.92 µM | TGI [35]: 2.77 µM | TGI [36]: 15.9 µM | TGI [37]: > 26.4 µM | TGI [38]: 2.37 µM | TGI [39]: 20.2 µM | TGI [40]: 6.01 µM | TGI [41]: 8.42 µM | TGI [42]: > 36.6 µM | TGI [43]: > 100 µM | TGI [44]: 3.59 µM | TGI [45]: 5.22 µM | TGI [46]: 3.27 µM | TGI [47]: > 100 µM | TGI [48]: 7.26 µM | TGI [49]: 7.95 µM | TGI [50]: 4.26 µM | TGI [51]: 4.25 µM | TGI [52]: 17.3 µM | TGI [53]: 2.7 µM

CNc1ncnc2c1nc(NC1CCCC1)n2C1OC(CO)C(O)C1O (stereo not given)
TGI [2]: > 100 µM | TGI [3]: > 100 µM | TGI [54]: > 100 µM | TGI [4]: > 100 µM | TGI [5]: > 100 µM | TGI [6]: > 100 µM | TGI [7]: > 100 µM | TGI [8]: > 100 µM | TGI [9]: > 100 µM | TGI [10]: > 100 µM | TGI [11]: > 100 µM | TGI [12]: > 100 µM | TGI [55]: > 100 µM | TGI [14]: > 100 µM | TGI [15]: > 100 µM | TGI [18]: > 100 µM | TGI [19]: > 100 µM | TGI [20]: > 100 µM | TGI [21]: > 100 µM | TGI [23]: > 100 µM | TGI [24]: > 100 µM | TGI [25]: > 100 µM | TGI [26]: > 100 µM | TGI [27]: > 100 µM | TGI [28]: > 100 µM | TGI [29]: > 100 µM | TGI [30]: > 100 µM | TGI [32]: > 100 µM | TGI [56]: > 100 µM | TGI [33]: > 100 µM | TGI [57]: > 100 µM | TGI [34]: > 100 µM | TGI [35]: > 100 µM | TGI [38]: > 100 µM | TGI [39]: > 100 µM | TGI [40]: > 100 µM | TGI [41]: > 100 µM | TGI [42]: > 100 µM | TGI [44]: > 100 µM | TGI [45]: > 100 µM | TGI [46]: > 100 µM | TGI [48]: > 100 µM | TGI [49]: > 100 µM | TGI [50]: > 100 µM | TGI [52]: > 100 µM | TGI [53]: > 100 µM

CCSC[C@@H]1C[C@](O)(c2ccc(F)cc2)[C@@H](c2ccc(F)cc2)O1
GI50 [1]: 15.3 µM | TGI [1]: 31.7 µM | GI50 [2]: 19.8 µM | TGI [2]: 42 µM | GI50 [54]: 21.3 µM | TGI [54]: 51 µM | GI50 [4]: 20.2 µM | TGI [4]: 37.9 µM | GI50 [5]: 17.9 µM | TGI [5]: 33.3 µM | GI50 [6]: 18.8 µM | TGI [6]: 36.6 µM | GI50 [7]: 16.6 µM | TGI [7]: 31.1 µM | GI50 [8]: 19.2 µM | TGI [8]: 37.1 µM | GI50 [9]: 14.8 µM | TGI [9]: 30.2 µM | GI50 [10]: 15.8 µM | TGI [10]: 30 µM | GI50 [11]: 17.1 µM | TGI [11]: 34.8 µM | GI50 [12]: 19 µM | TGI [12]: 33.1 µM | GI50 [13]: 14.5 µM | TGI [13]: 32.8 µM | GI50 [55]: 17 µM | TGI [55]: 31.1 µM | GI50 [14]: 17.4 µM | TGI [14]: 33 µM | GI50 [15]: 17.7 µM | TGI [15]: 37.8 µM | GI50 [16]: 16.1 µM | TGI [16]: 32.7 µM | GI50 [17]: 17.3 µM | TGI [17]: 32.2 µM | GI50 [18]: 15.1 µM | TGI [18]: 28.4 µM | GI50 [19]: 20.2 µM | TGI [19]: 45.7 µM | GI50 [20]: 23.6 µM | TGI [20]: > 64.6 µM | GI50 [21]: 14.8 µM | TGI [21]: 28 µM | GI50 [22]: 14.9 µM | TGI [22]: 36.1 µM | GI50 [23]: 15.8 µM | TGI [23]: 32.4 µM | GI50 [24]: 13.4 µM | TGI [24]: 27.4 µM | GI50 [25]: 18.2 µM | TGI [25]: 39.7 µM | GI50 [26]: 18.3 µM | TGI [26]: 38 µM | GI50 [27]: 17 µM | TGI [27]: 32.9 µM | GI50 [28]: 12.1 µM | TGI [28]: 29.2 µM | GI50 [29]: 16.4 µM | TGI [29]: 31.1 µM | GI50 [30]: 16.3 µM | TGI [30]: 32.5 µM | GI50 [31]: 7 µM | TGI [31]: 21.2 µM | GI50 [32]: 19.9 µM | TGI [32]: 37.3 µM | GI50 [56]: 14.7 µM | TGI [56]: 29.6 µM | GI50 [33]: 15 µM | TGI [33]: 35.8 µM | GI50 [57]: 15.3 µM | TGI [57]: 30.1 µM | GI50 [34]: 18.4 µM | TGI [34]: 32.6 µM | GI50 [35]: 14.1 µM | TGI [35]: 27.7 µM | GI50 [36]: 12.9 µM | TGI [36]: 30 µM | GI50 [37]: 18 µM | TGI [37]: 37 µM | GI50 [38]: 19.4 µM | TGI [38]: 41.3 µM | GI50 [39]: 16.7 µM | TGI [39]: 31.4 µM | GI50 [58]: 17.8 µM | TGI [58]: 38.8 µM | GI50 [40]: 18.3 µM | TGI [40]: 33.3 µM | GI50 [41]: 18.7 µM | TGI [41]: 44 µM | GI50 [42]: 17.8 µM | TGI [42]: 31.7 µM | GI50 [43]: 12.5 µM | TGI [43]: 30.2 µM | GI50 [44]: 15.2 µM | TGI [44]: 28.6 µM | GI50 [45]: 18.4 µM | TGI [45]: 49.3 µM | GI50 [46]: 19.2 µM | TGI [46]: 34.5 µM | GI50 [47]: 16 µM | TGI [47]: 31.5 µM | GI50 [48]: 3.21 µM | TGI [48]: 11.1 µM | GI50 [49]: 18.2 µM | TGI [49]: 33.4 µM | GI50 [50]: 19.1 µM | TGI [50]: 46.6 µM | GI50 [51]: 16.3 µM | TGI [51]: 31.1 µM | GI50 [52]: 16.5 µM | TGI [52]: 31.6 µM | GI50 [59]: 16.8 µM | TGI [59]: 30.9 µM | GI50 [53]: 15.3 µM | TGI [53]: 31.6 µM
